Data published in ChEMBL document CHEMBL1201862, “PubChem BioAssay data set” (2004).
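Cells were grown in 96-well plates and exposed to each compound for 48 hours at five concentrations; endpoints were interpolated linearly between bracketing concentrations, or set to the highest concentration if not reached. The concentration for 50% growth inhibition is given as GI50.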 Calls of active or inactive are those of the source. No stated cut-off is given here; in the data, active = GI50 up to about 1.1 µM and inactive = higher.

How the values were obtained:
Assay in all cases: NCI-60 cell line screen, 48 h
[1] = test system: SW-620
[2] = test system: NCI-H460
[3] = test system: A498
[4] = test system: SN12C
[5] = test system: CCRF-CEM
[6] = test system: MDA-MB-231
[7] = test system: SK-MEL-5
[8] = test system: EKVX
[9] = test system: LOX IMVI
[10] = test system: M14
[11] = test system: Malme-3M
[12] = test system: UACC-257
[13] = test system: KM12
[14] = test system: DU-145
[15] = test system: SK-OV-3
[16] = test system: OVCAR-4
[17] = test system: COLO 205
[18] = test system: NCI-H522
[19] = test system: SF-268
[20] = test system: UO-31

`c1ccc(CCCNc2nnnc3ccccc23)cc1` was tested, and the GI50 [1] was > 100 µM (inactive), the GI50 [2] was > 100 µM (inactive) and the GI50 [3] was > 100 µM (inactive). The GI50 [4] was > 100 µM (inactive), the GI50 [5] was 73.8 µM (inactive) and the GI50 [6] was > 100 µM (inactive). For the same compound, the GI50 [7] was 32.4 µM (inactive), the GI50 [8] was 70.1 µM (inactive) and the GI50 [9] was 99.5 µM (inactive). For the same compound, the GI50 [10] was > 100 µM (inactive), the GI50 [11] was 58.2 µM (inactive) and the GI50 [12] was 67.6 µM (inactive). The GI50 [13] was > 100 µM (inactive), the GI50 [14] was > 100 µM (inactive) and the GI50 [15] was > 100 µM (inactive). The GI50 [16] was 38.9 µM (inactive), the GI50 [17] was 62.5 µM (inactive) and the GI50 [18] was 24.1 µM (inactive). For the same compound, the GI50 [19] was > 100 µM (inactive).
`O=C(O)C(Cc1ccccc1-c1ccccc1)C(=O)O` was tested, and the GI50 [1] was > 100 µM (inactive), the GI50 [2] was > 100 µM (inactive) and the GI50 [3] was > 100 µM (inactive). For the same compound, the GI50 [4] was > 100 µM (inactive), the GI50 [6] was > 100 µM (inactive) and the GI50 [7] was > 100 µM (inactive). For the same compound, the GI50 [8] was > 100 µM (inactive), the GI50 [9] was > 100 µM (inactive) and the GI50 [10] was > 100 µM (inactive). The GI50 [11] was > 100 µM (inactive), the GI50 [12] was > 100 µM (inactive) and the GI50 [20] was > 100 µM (inactive). For the same compound, the GI50 [13] was > 100 µM (inactive), the GI50 [14] was > 100 µM (inactive) and the GI50 [16] was > 100 µM (inactive). The GI50 [17] was > 100 µM (inactive), the GI50 [18] was > 100 µM (inactive) and the GI50 [19] was > 100 µM (inactive).
For `O=C1C=CC2(O[C@H](c3ccccc3)[C@@H](c3ccccc3)O2)[C@H](Sc2ccccc2O)C1`, the GI50 [1] was 0.0824 µM (active), the GI50 [2] was 2.13 µM (inactive) and the GI50 [3] was 2.24 µM (inactive). The GI50 [4] was 0.204 µM (active), the GI50 [5] was < 0.0156 µM (active) and the GI50 [6] was 0.839 µM (active). For the same compound, the GI50 [7] was 0.993 µM (active), the GI50 [8] was 1.43 µM (inactive) and the GI50 [9] was 0.163 µM (active). For the same compound, the GI50 [10] was 0.233 µM (active), the GI50 [11] was 0.294 µM (active) and the GI50 [12] was 0.658 µM (active). For the same compound, the GI50 [20] was 0.665 µM (active), the GI50 [13] was 1.98 µM (inactive) and the GI50 [14] was 1.22 µM (inactive). The GI50 [15] was 3.27 µM (inactive), the GI50 [16] was 1.08 µM (active) and the GI50 [17] was 0.499 µM (active). For the same compound, the GI50 [18] was 0.0532 µM (active) and the GI50 [19] was 0.29 µM (active).
With `COc1ccc(OC)c2nc3c(C(=O)NCCN(C)C)cccc3nc12` the GI50 [1] was 1.77 µM (inactive), the GI50 [2] was 3.24 µM (inactive) and the GI50 [3] was 13.9 µM (inactive). The GI50 [4] was 4.11 µM (inactive), the GI50 [5] was 2.29 µM (inactive) and the GI50 [6] was 2.94 µM (inactive). For the same compound, the GI50 [7] was 3.67 µM (inactive), the GI50 [8] was 6.58 µM (inactive) and the GI50 [9] was 1.78 µM (inactive). The GI50 [10] was 4.69 µM (inactive), the GI50 [11] was 8.65 µM (inactive) and the GI50 [12] was 3.88 µM (inactive). For the same compound, the GI50 [20] was 2.72 µM (inactive), the GI50 [13] was 4.2 µM (inactive) and the GI50 [14] was 5.21 µM (inactive). For the same compound, the GI50 [16] was 3.09 µM (inactive), the GI50 [17] was 2.37 µM (inactive) and the GI50 [18] was 2.61 µM (inactive). For the same compound, the GI50 [19] was 3.94 µM (inactive).
In the case of `CC[C@@]1(OC(=O)C(N)CCC(=O)O)C(=O)OCc2c1cc1n(c2=O)Cc2cc3ccccc3nc2-1` (stereo partly drawn), the GI50 [1] is reported as 0.179 µM (active), the GI50 [2] is reported as 0.0112 µM (active) and the GI50 [3] is reported as 0.187 µM (active). For the same compound, the GI50 [4] was 0.0244 µM (active), the GI50 [5] was < 0.01 µM (active) and the GI50 [6] was 1.63 µM (inactive). The GI50 [7] was 0.0736 µM (active), the GI50 [8] was 1.44 µM (inactive) and the GI50 [9] was 0.0196 µM (active). For the same compound, the GI50 [10] was 0.0347 µM (active), the GI50 [11] was 0.266 µM (active) and the GI50 [12] was 0.228 µM (active). The GI50 [20] was 0.0493 µM (active), the GI50 [14] was < 0.01 µM (active) and the GI50 [15] was 0.0553 µM (active). The GI50 [16] was 1.24 µM (inactive), the GI50 [17] was 0.667 µM (active) and the GI50 [18] was 0.0536 µM (active). The GI50 [19] was 0.0256 µM (active).
For `O=C(CC(=O)Nc1ccccc1)NNC(c1cc(/N=N/c2ccc(Br)cc2)ccc1O)P(O)O` (stereo not drawn), the GI50 [1] was 1.55 µM (inactive), the GI50 [2] was 0.447 µM (active) and the GI50 [3] was 2.43 µM (inactive). For the same compound, the GI50 [4] was 4.04 µM (inactive), the GI50 [5] was 0.322 µM (active) and the GI50 [6] was 2.73 µM (inactive). The GI50 [7] was 1.53 µM (inactive), the GI50 [9] was 1.71 µM (inactive) and the GI50 [10] was 0.631 µM (active). For the same compound, the GI50 [11] was 2.38 µM (inactive), the GI50 [12] was 4.89 µM (inactive) and the GI50 [20] was 2.52 µM (inactive). For the same compound, the GI50 [13] was 1.81 µM (inactive), the GI50 [14] was 3.48 µM (inactive) and the GI50 [15] was 5.48 µM (inactive). For the same compound, the GI50 [16] was 1.85 µM (inactive), the GI50 [17] was 4.49 µM (inactive) and the GI50 [18] was 3.48 µM (inactive). The GI50 [19] was 0.964 µM (active).
In the case of `COC(=O)/C(=C\c1ccco1)P(=O)(OC)OC`, the GI50 [1] is reported as 89.5 µM (inactive), the GI50 [2] is reported as 48.3 µM (inactive) and the GI50 [3] is reported as 54.3 µM (inactive). For the same compound, the GI50 [4] was 39.9 µM (inactive), the GI50 [5] was 30.5 µM (inactive) and the GI50 [6] was 38.8 µM (inactive). The GI50 [7] was 62.4 µM (inactive), the GI50 [8] was 43.3 µM (inactive) and the GI50 [9] was 19.9 µM (inactive). The GI50 [10] was 55.7 µM (inactive), the GI50 [11] was 16.4 µM (inactive) and the GI50 [12] was 65.8 µM (inactive). For the same compound, the GI50 [13] was > 100 µM (inactive), the GI50 [14] was 80.9 µM (inactive) and the GI50 [15] was 73.6 µM (inactive). For the same compound, the GI50 [16] was 17.8 µM (inactive), the GI50 [17] was > 100 µM (inactive) and the GI50 [18] was 2.49 µM (inactive). For the same compound, the GI50 [19] was 97.3 µM (inactive).
